Assay results published in the Biogen ADME set (Fang et al. 2023).
≈ marks a conversion by molar mass, not a printed value.

Conditions: for aqueous solubility: pH 6.8

SMILES | MDR1-MDCK efflux ratio | intrinsic clearance, human liver microsomes [mL/min/kg] | intrinsic clearance, rat liver microsomes [mL/min/kg] | aqueous solubility [µg/mL] | fraction unbound, human plasma | fraction unbound, rat plasma
CCC1(CC)NC(=O)N(CC(=O)N2CCOCC3(CCCC3)C2)C1=O | 81.5 | 30.6 | 217 | 63.4 (≈ 180 µM) |  | 
COc1cc(F)ccc1-c1ncccc1NC(=O)C(C)C | 3.33 | ≤ 4.74 | 25.7 | 34.6 (≈ 120 µM) |  | 
O[C@@H]1CCCC[C@H]1N1CCC(c2ccccc2)CC1 | 0.462 | ≤ 4.74 | 1390 | 46.5 (≈ 179 µM) |  | 
O=c1ccc(-c2ccc(F)cc2)nn1Cc1ccncc1 | 0.674 | 7.74 | 56.5 | 46 (≈ 163 µM) |  | 
CCOC(C)C(=O)N1CCC(n2c(=O)[nH]c3ccccc32)CC1 (configuration not stated) |  | ≤ 4.74 | 75.8 | 64.7 (≈ 204 µM) |  | 
CC(C)c1nnc(CNc2ncc(Br)cn2)n1C | 4.39 | ≤ 4.74 | ≤ 10.7 |  |  | 
CCCS(=O)(=O)Nc1ccc(F)c(C(=O)c2c[nH]c3ncc(-c4ccc(Cl)cc4)cc23)c1F | 5.52 |  |  | 0.35 (≈ 0.714 µM) | 0.00025 | 
CC(=O)Nc1sc2c(c1-c1nc3ccccc3s1)CCN(C(C)C)C2 |  | 34.8 | 231 |  |  | 
CN(Cc1ccccc1Br)C(=O)Nc1ccc(C(=O)N2CCCC2)cc1 | 9.97 | 14.6 | 767 | 69.4 (≈ 167 µM) |  | 
Cc1ccnc(N2CCC(OCC3CCCC3)CC2)n1 | 0.515 | 108 | 5910 |  |  | 
CCc1c(N)cnn1-c1ccccc1C | 0.677 | 8.11 | 165 | 37.1 (≈ 185 µM) |  | 
CC(C)c1cc(N2CCc3[nH]nc(C4CC4)c3C2)n2nccc2n1 | 6.42 | 70.4 | 381 | 23.8 (≈ 73.7 µM) |  | 
Cc1sc2ncnc(N3CCC(C(=O)Nc4ccccn4)CC3)c2c1C |  |  |  | 1.85 (≈ 5.03 µM) |  | 
Cc1cc(Nc2ccc(F)cn2)cc(C2CCN(C(=O)Cn3nc(C)ccc3=O)C2)n1 (configuration not stated) | 29.9 | 19.7 | 89.9 |  |  | 
CNC(=O)c1cccc(Oc2ncnc3c2CN(C)CC3)c1 | 19.2 | ≤ 4.74 | ≤ 10.7 | 46.9 (≈ 157 µM) |  | 
CN(CC(=O)NC1(C#N)CCCCC1)c1cccc(C#N)c1 | 10.4 | 85.8 | 701 | 20.3 (≈ 68.4 µM) |  | 
Nc1ccc2c(c1)ncn2CCc1ccccc1 | 0.701 | ≤ 4.74 | 28.1 | 38.4 (≈ 162 µM) |  | 
O=C(Nc1nc2cc(C(F)(F)F)cc(NC3CC3)n2n1)c1cccnc1 | 2.35 | ≤ 4.74 | 39.6 | 1.1 (≈ 3.04 µM) |  | 
COc1cc2ncnc(Nc3cccc(O)c3)c2cc1OC |  | 22 | 154 |  | 0.0987 | 0.0447
CCCCOc1ccc(C(=O)NCc2cc(C)on2)cc1 | 0.563 | 11.8 | 421 | 4.2 (≈ 14.6 µM) |  | 
CN(C)CC(C)(C)CNc1cn[nH]c(=O)c1Br | 0.676 | 8.54 | 43.9 |  |  | 
c1ccc(C(c2ccccc2)c2noc(Cn3cnc(C4CC4)n3)n2)cc1 | 1.14 | 38 | 1510 | 26.3 (≈ 73.6 µM) |  | 
c1ccc(Cc2cccc3cc4c(nc23)OCCNC4)cc1 |  | 24.5 | 1120 | 47.8 (≈ 165 µM) |  | 
COc1cc2c(cc1OC)CN(C(=O)C1CCCN(C(=O)c3ccc(Cl)cc3)C1)CC2 (configuration not stated) | 10.1 |  |  |  |  | 
CCOc1ccccc1CNCCc1c[nH]c2ccccc12 | 3.34 | 127 | 2170 | 39.6 (≈ 135 µM) |  | 
CC(=O)N1CCN(c2c(Cl)cccc2NC(=O)COc2ccccc2Cl)CC1 |  | 430 | 3580 | 19.5 (≈ 46.2 µM) | 0.0181 | 
CC(C)(C)c1nccc(NCc2ccncc2)n1 | 0.7 | 14.1 | 748 | 30.4 (≈ 125 µM) |  | 
CCN1C(=O)C(=O)N(Cc2sc3ccccc3c2Cl)C1=O |  |  |  | 0.3 (≈ 0.929 µM) |  | 
CCOc1cc2c(cc1CCC(=O)N1CCC(Cc3ncncc3C(N)=O)CC1)CCC2 |  | 564 | 1650 | 75.2 (≈ 172 µM) |  | 
